Data on 18 compounds can be found in patent US12655124B2, “Heterocyclic compounds as modulators of stimulator of interferon genes (STING)” (RYVU THERAPEUTICS S.A., priority 2019, dated 2026).

For test [1], the system named is interferon regulatory factor (IRF) pathway in THP-1 dual cells. Briefly: THP-1 Dual reporter assay, IRF pathway (luciferase). In kind it is cell-based. The conditions noted are these: Homo sapiens, THP1-Dual, 18 h stimulation, luminescence. The protocol: (§1) THP-1 Dual Reporter Assay
(§2) Compounds of the present invention were tested for their activity using THP-1 dual cells (Invivogen, cat no. thpd-nfis) allowing for simultaneous study of NF-κB pathway and the interferon regulatory factor (IRF) pathway. THP-1 dual cells contain luciferase reporter gene under the control of an ISG54 (interferon-stimulated gene) minimal promoter in conjunction with five interferon-stimulated response elements and a secreted embryonic alkaline phosphatase reporter gene under the control an IFN (interferon)-β minimal promoter fused to five copies of the NF-κB consensus transcriptional response element with three copies of the c-Rel binding site. Following 18 h of stimulation with STING agonist, medium was collected and transferred onto fresh cell culture plate. To verify activity of the IRF pathway, luminescence activity was measured with standard laboratory plate reader immediately after addition 10 μl of the medium to 40 or 50 μl of luminescence reagent (Invivogen, cat. No. rep-qlc2). To verify activity of NF-κB pathway, 10 or 20 μl of the medium was mixed with 80 μl of a detection medium (Invivogen, cat. No. rep-qb2) and incubated for 1 or 2 hours at 37° C. in a humidified atmosphere containing 5% CO2. Next, absorbance at 630 or 655 nm was recorded using standard laboratory plate reader.
In general terms: Reporter assays use an easily measured gene product as a stand-in for the process of interest.

Test [2] deals with NF-κB pathway in THP-1 dual cells. The experiment in a line: THP-1 Dual reporter assay, NF-κB pathway (SEAP). Type of test: cell-based. The conditions noted are these: Homo sapiens, THP1-Dual, 18 h stimulation, absorbance at 630 or 655 nm, read-out: THP1 Dual EC50 (μM) NFkB. The procedure: as §1, §2
The target of a further test is human STING (Homo sapiens, UniProt Q86WV6). Briefly: Fluorescence Thermal Shift assay (hSTING FTS binding assay).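 Also: STING preincubated with compound for 20 min in HEPES NaCl buffer pH 7.5.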 To be noted: ΔTm, STING 0.1 mg/mL, SyproOrange, 25 to 99° C. The protocol:
Fluorescence Thermal Shift Assay Compounds of the present invention were tested for binding to human STING in Fluorescence Thermal Shift assay. […] Final STING concentration was 0.1 mg/mL. Thermal unfolding was performed in Real-Time PCR QuantStudio 6 Flex System (Applied Biosystems), from 25 to 99° C., with continuous ramp mode and ramp rate 0.033° C./s. The data were analyzed using Protein Thermal Shift Software (ThermoFisher).

Counter-ions that a name gives are not always drawn. Some results are limits rather than exact numbers.

human STING, sequence (Q86WV6 whole entry H232R): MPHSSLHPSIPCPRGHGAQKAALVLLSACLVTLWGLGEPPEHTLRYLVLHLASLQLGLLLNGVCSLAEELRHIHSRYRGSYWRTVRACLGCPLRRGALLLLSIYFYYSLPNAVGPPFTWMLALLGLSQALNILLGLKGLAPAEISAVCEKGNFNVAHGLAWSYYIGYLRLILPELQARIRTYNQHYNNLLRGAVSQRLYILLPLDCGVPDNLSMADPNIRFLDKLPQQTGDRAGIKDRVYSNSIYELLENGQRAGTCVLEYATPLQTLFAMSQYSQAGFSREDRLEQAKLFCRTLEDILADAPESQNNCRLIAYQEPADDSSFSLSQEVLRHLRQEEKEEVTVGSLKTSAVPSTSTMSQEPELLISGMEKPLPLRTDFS

Broadly, the EC50 is the concentration at which the effect is half-maximal. `Cc1cc(CN(Cc2cn(C)c3ccccc3c2=O)[C@H]2CCCN(c3ccc(CCO)nc3)C2)ccn1` [Example 43, 3-({[(3S)-1-[6-(2-hydroxyethyl)pyridin-3-yl]piperidin-3-yl][(2-methylpyridin-4-yl)methyl]amino}methyl)-1-methyl-1,4-dihydroquinolin-4-one]: the EC50 in test [1] and in test [2] was 1 to 10 µM each time.
With `Cc1cc(CN(Cc2cn(C3CC3)c3cc(OCCO)c(F)cc3c2=O)[C@H]2CCCN(c3cnccn3)C2)ccn1.Cl` [Example 85, 1-cyclopropyl-6-fluoro-7-(2-hydroxyethoxy)-3-({[(2-methylpyridin-4-yl)methyl][(3S)-1-(pyrazin-2-yl)piperidin-3-yl]amino}methyl)-1,4-dihydroquinolin-4-one Hydrochloride], the “hSTING FTS binding assay (ΔT ° C.)” value at human STING is reported as “++ (10<ΔTm<20° C.)”. For the same compound, the EC50 in test [1] and in test [2] was ≤ 1 µM in each case.
As to `Cc1ccc(N2CCC[C@H](N(Cc3ccnc(C)c3)Cc3cn(C)c4cc(N5CC[C@H](N)C(F)(F)C5)ccc4c3=O)C2)cn1` (single isomer, unassigned) [Example 51], the EC50 was ≤ 1 µM in test [1] and 1 to 10 µM in test [2].
As for `Cc1ccc(N2CCC[C@H](N(Cc3ccnc(C)c3)Cc3cn(C4CC4)c4cc(CN)c(F)cc4c3=O)C2)cn1` [Example 80, 7-(aminomethyl)-1-cyclopropyl-6-fluoro-3-({[(3S)-1-(6-methylpyridin-3-yl)piperidin-3-yl][(2-methylpyridin-4-yl)methyl]amino}methyl)-1,4-dihydroquinolin-4-one], the EC50 in test [1] and in test [2] was ≤ 1 µM each time.
Take `Cc1cc(CN(Cc2cn(C3CC3)c3cc(OCCO)c(F)cc3c2=O)[C@H]2CCCN(c3cccnc3)C2)ccn1` [Example 84, 1-cyclopropyl-6-fluoro-7-(2-hydroxyethoxy)-3-({[(2-methylpyridin-4-yl)methyl][(3S)-1-(pyridin-3-yl)piperidin-3-yl]amino}methyl)-1,4-dihydroquinolin-4-one Hydrochloride]: the EC50 in test [1] and in test [2] was ≤ 1 µM each time.
Take `Cc1ccc(N2CCC[C@H](N(Cc3ccnc(C)c3)Cc3cn(C4CC4)c4nc(N)c(F)cc4c3=O)C2)cn1` [Example 36, 7-amino-1-cyclopropyl-6-fluoro-3-({[(3S)-1-(6-methylpyridin-3-yl)piperidin-3-yl][(2-methylpyridin-4-yl)methyl]amino}methyl)-1,4-dihydro-1,8-naphthyridin-4-one]: the EC50 in test [1] and in test [2] was ≤ 1 µM in each case.
On to `Cc1ccc(N2CCC[C@H](N(Cc3ccnc(C)c3)Cc3cn(C4CC4)c4cc(-n5cc(CO)nn5)c(F)cc4c3=O)C2)cn1` [Example 61, 1-Cyclopropyl-6-fluoro-7-[4-(hydroxymethyl)-1H-1,2,3-triazol-1-yl]-3-({[(3S)-1-(6-methylpyridin-3-yl)piperidin-3-yl][(2-methylpyridin-4-yl)methyl]amino}methyl)-1,4-dihydroquinolin-4-one], for which the EC50 in test [1] and in test [2] was ≤ 1 µM in each case.
In the case of `COc1cc(CN(Cc2cn(C3CC3)c3cc(N4CC[C@@H](O)C4)c(F)cc3c2=O)[C@H]2CCCN(c3cccnc3)C2)ccn1` [Example 65, 1-cyclopropyl-6-fluoro-7-[(3R)-3-hydroxypyrrolidin-1-yl]-3-({[(2-methoxypyridin-4-yl)methyl][(3S)-1-(pyridin-3-yl)piperidin-3-yl]amino}methyl)-1,4-dihydroquinolin-4-one Hydrochloride], the EC50 in test [1] and in test [2] was ≤ 1 µM throughout.
For the compound `Cc1cc(CN(Cc2cn(C(C)C)c3cc(F)c(F)cc3c2=O)[C@H]2CCCN(c3ccc(N)nc3)C2)ccn1.Cl` [Example 24, 3-({[(3S)-1-(6-aminopyridin-3-yl)piperidin-3-yl][(2-methylpyridin-4-yl)methyl]amino}methyl)-6,7-difluoro-1-(propan-2-yl)-1,4-dihydroquinolin-4-one Hydrochloride], the “hSTING FTS binding assay (ΔT ° C.)” value on human STING is “+++ (ΔTm≥20° C.)”. The EC50 in test [1] and in test [2] was ≤ 1 µM each time.
For `Cc1ccc(N2CCC[C@H](N(Cc3ccnc(C)c3)Cc3cn(C4CC4)c4cc(OCCO)c(F)cc4c3=O)C2)cn1` [Example 47, 1-Cyclopropyl-6-fluoro-7-(2-hydroxyethoxy)-3-({[(3S)-1-(6-methylpyridin-3-yl)piperidin-3-yl][(2-methylpyridin-4-yl)methyl]amino}methyl)-1,4-dihydroquinolin-4-one], on human STING, the “hSTING FTS binding assay (ΔT ° C.)” value is reported as “+++ (ΔTm≥20° C.)”. The EC50 in test [1] and in test [2] was ≤ 1 µM each time.
Take `Cc1ccc(N2CCC[C@H](N(Cc3ccnc(C)c3)Cc3cn(C4CC4)c4cc(N5CC[C@@H](O)C5)ccc4c3=O)C2)cn1` [Example 45, 1-cyclopropyl-7-[(3R)-3-hydroxypyrrolidin-1-yl]-3-({[(3S)-1-(6-methylpyridin-3-yl)piperidin-3-yl][(2-methylpyridin-4-yl)methyl]amino}methyl)-1,4-dihydroquinolin-4-one]: on human STING, the “hSTING FTS binding assay (ΔT ° C.)” value was “+++ (ΔTm≥20° C.)”. The EC50 in test [1] and in test [2] was ≤ 1 µM in each case.
In the case of `Cc1ccc(N2CCC[C@H](N(Cc3ccnc(C)c3)Cc3cn(C4CC4)c4cc(NC(=O)CN)c(F)cc4c3=O)C2)cn1` [Example 25, 2-amino-N-[1-cyclopropyl-6-fluoro-3-({[(3S)-1-(6-methylpyridin-3-yl)piperidin-3-yl][(2-methylpyridin-4-yl)methyl]amino}methyl)-4-oxo-1,4-dihydroquinolin-7-yl]acetamide], the “hSTING FTS binding assay (ΔT ° C.)” value at human STING was “+++ (ΔTm≥20° C.)”. In addition, the EC50 in test [1] and in test [2] was ≤ 1 µM each time.
Turning to `Cc1ccc(N2CCC[C@H](N(Cc3ccnc(C)c3)Cc3cn(CCN)c4ccccc4c3=O)C2)cn1` [Example 18, 1-(2-Aminoethyl)-3-({[(3S)-1-(6-methylpyridin-3-yl)piperidin-3-yl][(2-methylpyridin-4-yl)methyl]amino}methyl)-1,4-dihydroquinolin-4-one], the “hSTING FTS binding assay (ΔT ° C.)” value at human STING is “+ (ΔTm≤10° C.)”. Moreover, the EC50 in test [1] and in test [2] was 1 to 10 µM in each case.
As for `Cc1cc(CN(Cc2cn(C3CC3)c3cc(OCCO)c(F)cc3c2=O)[C@H]2CCCN(c3ccc(Cl)nc3)C2)ccn1` [Example 97, 3-({[(3S)-1-(6-chloropyridin-3-yl)piperidin-3-yl][(2-methylpyridin-4-yl)methyl]amino}methyl)-1-cyclopropyl-6-fluoro-7-(2-hydroxyethoxy)-1,4-dihydroquinolin-4-one Hydrochloride], the EC50 in test [1] and in test [2] was ≤ 1 µM each time.
As to `Cc1cc(CN(Cc2cn(C)c3ccccc3c2=O)[C@H]2CCCN(c3cncc(CO)c3)C2)ccn1` [Example 44, 3-({[(3S)-1-[5-(hydroxymethyl)pyridin-3-yl]piperidin-3-yl][(2-methylpyridin-4-yl)methyl]amino}methyl)-1-methyl-1,4-dihydroquinolin-4-one], the EC50 in test [1] and in test [2] was ≥ 10 µM throughout.
Consider `Cc1cc(CN(Cc2cn(C)c3cc(N4CCC(C(=O)O)CC4)ccc3c2=O)[C@H]2CCCN(c3cccnc3)C2)ccn1` [Example 46, 1-[1-methyl-3-({[(2-methylpyridin-4-yl)methyl][(3S)-1-(pyridin-3-yl)piperidin-3-yl]amino}methyl)-4-oxo-1,4-dihydroquinolin-7-yl]piperidine-4-carboxylic Acid], for which, at human STING, the “hSTING FTS binding assay (ΔT ° C.)” value is “++ (10<ΔTm<20° C.)”. The EC50 in test [1] and in test [2] was ≥ 10 µM in each case.
Regarding `Cc1ccc(N2CCC[C@H](N(Cc3ccnc(C)c3)Cc3cn(C)c4c(OCCO)cccc4c3=O)C2)cn1` [Example 63, 8-(2-hydroxyethoxy)-1-methyl-3-({[(3S)-1-(6-methylpyridin-3-yl)piperidin-3-yl][(2-methylpyridin-4-yl)methyl]amino}methyl)-1,4-dihydroquinolin-4-one], the EC50 in test [1] and in test [2] was ≤ 1 µM each time.
`Cc1ccc(N2CCC[C@H](N(Cc3ccnc(C)c3)Cc3cn(C4CC4)c4cc(-n5cc(C(N)=O)nn5)c(F)cc4c3=O)C2)cn1` [Example 60, 1-[1-Cyclopropyl-6-fluoro-3-({[(3S)-1-(6-methylpyridin-3-yl)piperidin-3-yl][(2-methylpyridin-4-yl)methyl]amino}methyl)-4-oxo-1,4-dihydroquinolin-7-yl]-1H-1,2,3-triazole-4-carboxamide]: the EC50 in test [1] and in test [2] was ≤ 1 µM each time.
